Target: T1, Squalene synthase (Rattus norvegicus, UniProt Q02769)
T1 sequence (Q02769 whole entry): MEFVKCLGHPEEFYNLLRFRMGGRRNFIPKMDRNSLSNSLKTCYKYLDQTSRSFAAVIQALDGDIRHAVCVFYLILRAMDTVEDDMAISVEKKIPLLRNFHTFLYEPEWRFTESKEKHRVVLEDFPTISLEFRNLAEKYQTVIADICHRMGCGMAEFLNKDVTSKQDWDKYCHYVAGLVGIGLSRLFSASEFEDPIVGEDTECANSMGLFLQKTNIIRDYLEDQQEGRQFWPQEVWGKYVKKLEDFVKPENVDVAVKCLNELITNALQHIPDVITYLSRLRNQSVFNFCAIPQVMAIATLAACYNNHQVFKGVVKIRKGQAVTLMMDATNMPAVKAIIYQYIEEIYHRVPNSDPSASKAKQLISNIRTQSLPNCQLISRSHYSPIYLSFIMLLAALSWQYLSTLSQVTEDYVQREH
Assay: Tested for the squalene synthetase inhibitory activity in rat liver microsomal assay
Assay type: microsomes

Row | IC50 | SMILES
1 | 10 nM | CC(C)=CCC/C(C)=C/CC/C(C)=C/CNCc1ccccc1.O=P(O)(O)OP(=O)(O)O
2 | 20 nM | CC(C)=CCC/C(C)=C/CC/C(C)=C/CN(CCP(=O)(O)C(C)(C)P(=O)(O)O)Cc1ccccc1
